According to PubChem BioAssay (NCI):
Where “and” joins values, the source holds several entries; their conditions need not be identical. Equal entries are not always repeated.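 Exposure lasted 48 hours, with cells grown in 96-well plates and compounds tested at five concentrations. GI50 is the concentration that inhibits growth by half. TGI is the concentration that stops growth completely.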

Assays:
Assay in all cases: inhibition of tumour cell growth, NCI panel, 48 h
IGROV1 ovarian = system: IGROV1 ovarian
U251 CNS = system: U251 CNS
NCI/ADR-RES ovarian = system: NCI/ADR-RES ovarian
RXF 393 renal = system: RXF 393 renal
CAKI-1 renal = system: CAKI-1 renal
SF-295 CNS = system: SF-295 CNS
HCT-15 colon = system: HCT-15 colon
BT-549 breast = system: BT-549 breast
MOLT-4 leukemia = system: MOLT-4 leukemia
CCRF-CEM leukemia = system: CCRF-CEM leukemia

SMILES	TGI (IGROV1 ovarian) [µM]	TGI (U251 CNS)	TGI (NCI/ADR-RES ovarian)	TGI (RXF 393 renal) [µM]	TGI (CAKI-1 renal)	TGI (SF-295 CNS)	TGI (HCT-15 colon)	TGI (BT-549 breast) [µM]	TGI (MOLT-4 leukemia) [µM]	TGI (CCRF-CEM leukemia)	GI50 (NCI/ADR-RES ovarian) [µM]	GI50 (HCT-15 colon) [µM]	GI50 (U251 CNS) [µM]	GI50 (RXF 393 renal) [µM]	GI50 (CCRF-CEM leukemia) [µM]	GI50 (BT-549 breast) [µM]	GI50 (IGROV1 ovarian) [µM]	GI50 (CAKI-1 renal) [µM]	GI50 (SF-295 CNS) [µM]
N#C/C(=C/C=C/c1ccco1)C(N)=O	> 10	> 10 µM	> 10 µM	> 10	> 10 µM	> 10 µM	> 10 µM												
CCc1cccc2c3c([nH]c12)-c1ccccc1NC(=O)C3	> 100	> 100 µM	> 100 µM		> 100 µM	> 100 µM	> 100 µM	> 100	> 100	> 100 µM									
O=C(/C(=C(/O)c1ccccc1)c1nc2ccccc2sc1=O)c1ccccc1	> 100	> 100 µM	74.4 µM	> 100	> 100 µM	74.9 µM	> 100 µM	> 100		6.51 µM									
C(/C=N/NC1=NCCCCN1)=N\NC1=NCCCCN1	> 100	> 100 µM	> 100 µM		> 100 µM	> 100 µM		> 100	> 100	> 100 µM									
CC(=O)n1cc(C2CC23N=C(c2ccccc2)OC3=O)c2ccccc21 (stereo unspecified)	38.3	36.8 µM	> 56 µM	34.6	36 µM	> 100 µM	58.9 µM	30.3		7.86 µM									
O=C1COc2cc(N3CCN(c4cccc(C(F)(F)F)c4)CC3)ccc2N1	> 100	> 100 µM	> 100 µM		> 100 µM	> 100 µM	> 100 µM	> 100	> 100	> 100 µM									
CCC1(O)CC(OC2CC(N(C)C)C(OC3CC(O)C(OC4OC(C)C(=O)C=C4N)C(C)O3)C(C)O2)c2c(cc3c(c2O)C(=O)c2c(O)cccc2C3=O)C1C(=O)OC (stereo unspecified)		1.5 µM and 1.55 µM	5.5 µM and 27 µM		0.308 µM and 0.0365 µM	1.53 µM and 1.13 µM	1.66 µM and 11.8 µM			0.131 µM and 0.818 µM	1.86	0.471							
CCOC(=O)c1ccc(Nc2nc3ccccc3nc2-c2cccs2)cc1	> 100	> 100 µM	> 100 µM	> 100	> 100 µM	> 100 µM	> 100 µM		> 100	> 100 µM									
CC(C(=O)OCc1ccccc1)N(Cc1ccccc1)Cc1ccccc1 (stereo unspecified)	> 100	> 100 µM		88	> 100 µM	> 100 µM	> 100 µM		> 100	> 100 µM									
NS(=O)(=O)c1nc(S(=O)(=O)O)c2[nH]cnc2n1	> 100	> 100 µM	> 100 µM	> 100	> 100 µM	> 100 µM	> 100 µM	> 100	> 100										
COC(=O)[C@@H]1CS(=O)(=O)C(C(C)C)N1C(C)=O (stereo partly specified)	> 100	> 100 µM	> 100 µM	> 100	> 100 µM	> 100 µM	> 100 µM	> 100											
Cc1c(CNc2ccc(C(=O)NC(CCCNC(=O)c3ccccc3C(=O)O)C(=O)O)cc2)cnc2nc(N)nc(N)c12 (stereo unspecified)		> 100 µM	> 100 µM	2.15			> 100 µM	6.62					0.00285	0.279	> 100				
COc1ccc(C2C3=C(N=C4SC(C(C)=O)=C(C)N42)c2ccccc2CC3)cc1 (stereo unspecified)	> 100	> 100 µM		> 100		> 100 µM	> 100 µM	> 100		> 100 µM									
COc1ccccc1OCC(COC(=O)Nc1ccccc1)OC(=O)Nc1ccccc1 (stereo unspecified)	> 100	> 100 µM		46.8	> 100 µM	> 100 µM	> 100 µM			> 100 µM									
Cc1cc2[nH]c3c(C#N)c(-c4ccccc4)c(N=Nc4ccc(F)cc4)c(=O)n3c2cc1C		> 100 µM	> 100 µM	> 100	> 100 µM	> 100 µM	> 100 µM	> 100		> 100 µM									
O=C1NC(=O)c2ccccc2/C1=C/c1ccc2c(c1)OCO2	60.9		69.2 µM	17.4	98.4 µM	83.1 µM	31.8 µM	50.8	> 100	> 100 µM									
CC1=NN(c2cccc(Cl)c2)C2(C1=Cc1ccc(O)cc1)C(Cl)C(=O)N2c1nc2ccccc2s1 (stereo unspecified)	65.9	49.2 µM	59.7 µM	47.9	85.6 µM	57 µM	32.1 µM		44.2	> 100 µM									
O=c1c2cc(C(F)(F)F)ccc2sc2c(NCCCNCCO)nc3ccccc3c12	2.62			2.82	2.81 µM	3.3 µM	2.77 µM	24.9				1.32		1.4		5.28	1.23	1.48	1.81
O=[N+]([O-])c1ccc(NN=C2CN3CCN(C2)c2ccccc23)c([N+](=O)[O-])c1	> 100	> 100 µM	> 100 µM		> 100 µM	> 100 µM	> 100 µM	> 100	> 100	> 100 µM									
O=C(COc1ccc(OCC(=O)N2C(=O)CC(=O)N(c3ccc(Cl)cc3)C2=S)cc1)N1C(=O)CC(=O)N(c2ccc(Cl)cc2)C1=S	> 100	> 100 µM	93.4 µM	83.1		> 100 µM	> 100 µM	87.8	> 100										
N#Cc1nc2cc(Cl)ccc2nc1N1CCN(c2ccc([N+](=O)[O-])cc2)CC1		> 100 µM	> 100 µM	> 100	> 100 µM	> 100 µM	> 100 µM	> 100	> 100										
CN1/C(=C/C=C/C=C/C=C2C(=O)c3ccccc3C2=O)C(C)(C)c2ccccc21	> 100		> 100 µM	81.4	> 100 µM	> 100 µM	> 100 µM	81		> 100 µM									
